Assay results reported in patent US20230292776A1, “GAS PHASE TREATMENT OF PRODUCE” (priority 2022, published 2023).

Legend:
Assay type in all cases: in vivo
[1] = tested on: Penicillium italicum (Pi); assay: Antifungal activity of vapor against Penicillium italicum (Pi) in wounded, infected mandarins
Procedure: Example 2. The antifungal activity of allyl isothiocyanate (AITC) and DADS vapor was tested against Pd and Penicillium italicum (Pi) in mandarins. All samples were wounded by puncturing with a screw. Mandarins were infected by dispensing either 1000 Pd spores or 1000 Pi spores suspended in 10 μL into the wound. The test groups consisted of mandarins that were: uninfected and untreated; uninfected and treated by dipping in a solution of 1 g/L of imazalil; infected with Pd and untreated; infected with Pd and exposed to AITC; infected with Pd and exposed to DADS; infected with Pi and untreated; infected with Pi and exposed to AITC; and infected with Pi and exposed to DADS. Exposure to AITC or DADS consisted of exposing the mandarins for 72 hours to the vapor of 3 mL of the respective compound dispensed in a Petri dish. […] DADS vapor reduced the incidence of Pd mold by 85% and Pi mold by 30% compared to the respective untreated/infected test groups. […] Both AITC and DADS were effective at preventing fungal growth. The inhibition from AITC was approximately 100%, with some changes in visible appearance.

[2] = tested on: Colletotrichum gloeosporioides (Cg); assay: Antifungal activity against Colletotrichum gloeosporioides (Cg) in wounded, infected avocados; settings: for reduction of the incidence of Cg mold compared to the untreated test group: vapor of 3 mL in a Petri dish; for incidence of Cg mold: day 5
Procedure: Example 7. The antifungal activity of AITC and DADS vapor against Colletotrichum gloeosporioides (Cg) was tested in avocados. All test pieces were wounded by removing the stem and infected by dispensing 1000 Cg spores suspended in 10 μL of water into the wound. The test groups consisted of avocados that were: untreated and uninfected; untreated and infected; treated by dipping in a solution of 0.1 g/L of prochloraz; exposed to the vapor of 3 mL of AITC disposed in a Petri dish; and exposed to the vapor of 3 mL of DADS disposed in a Petri dish. FIG. 9 quantifies the infection results. AITC vapor reduced the incidence of Cg mold by 97% compared to the untreated test group and 70% compared to the prochloraz treated test group. DADS vapor reduced the incidence of Cg mold by 60% compared to the untreated test group.
Example 8. The antifungal activity of a range of DADS vapor exposure times was tested against Cg in avocados. All test pieces were wounded by removing the stem and infected by dispensing 1000 Cg spores suspended in 10 μL of water into the wound. The test groups consisted of avocados that were: infected and untreated; and exposed to the vapor of 3 mL of DADS in a Petri dish for 24 hours, 48 hours, and 72 hours. FIG. 10 quantifies the infection results. Test group exposed to DADS vapor at all exposure times reduced the incidence of Cg mold compared to the untreated test group. A 24 hour DADS exposure reduced the incidence of Cg mold by 8%. A 48 hour DADS exposure reduced the incidence of Cg mold by 25%. A 72 hour DADS exposure reduced the incidence of Cg mold by 57%.
Example 9. The antifungal activity of a range of AITC and carvacrol vapor exposure times was tested against Cg in avocados. To measure the effect of the various treatments on ripening, durometer shore was taken after 7 days of incubation at ambient temperature and high humidity. All samples were wounded by removing the stem and infected by dispensing 1000 Cg spores suspended in 10 μL of water in the wound. The test groups consisted of avocados that were: infected and left untreated on the benchtop; infected and left untreated under a fume hood; exposed to the vapor of 3 mL of AITC in a Petri dish for 24 hours, 48 hours, and 72 hours; and exposed to the vapor of 3 mL of carvacrol in a Petri dish for 72 hours. FIG. 11 quantifies the infection results. […] All exposure times to AITC vapor reduced the incidence of Cg mold compared to the untreated samples. A 24 hour AITC exposure reduced the incidence of Cg mold by 90%. A 48 hour AITC exposure reduced the incidence of Cg mold by 97%. A 72 hour AITC exposure reduced the incidence of Cg mold by 83%.
Example 10. The antifungal activity of a range of AITC vapor exposure times were tested against Cg in avocados. To measure the effect of the various treatments on ripening, durometer shore was taken after 6 days of incubation at ambient temperature and high humidity. All samples were wounded by removing the stem and infected by dispensing 1000 Cg spores suspended in 10 μL of water in each wound. The test groups consisted of avocados that were: infected and left untreated on the benchtop; infected and left untreated in a fume hood; exposed to the vapor of 3 mL of AITC in a Petri dish for 24 hours, 48 hours, and 72 hours. FIG. 13 quantifies the infection results. […] All exposure times to AITC vapor reduced the incidence of Cg mold compared to the untreated samples.
Example 21. The antifungal activity of avocados exposed to AITC vapor and prochloraz was tested against Cg in avocados. To measure the effect of the various treatments on ripening, durometer shore was taken after 5 days of incubation at ambient temperature (about 20° C. to about 25° C.) and high humidity (about 88% relative humidity to about 93% relative humidity). All samples were wounded by removing the stem and infected by dispensing 1000 Cg spores suspended in 10 μL of water in the wound. […]

Botrytis cinerea (Bc) [3] = assay: Antifungal activity of vapor against Botrytis cinerea (Bc) in grapes; settings: Example 12; vapor of 3 mL in a Petri dish for 72 hours
Procedure: Example 12. The antifungal activity of AITC and DADS vapor against Botrytis cinerea (Bc) in grapes was tested. All samples were wounded by making a 3 mm deep puncture in the skin. Samples were infected by dispensing 1000 Bc spores suspended in 10 μL of water in the wound. The test groups consisted of grapes that were: uninfected and untreated; infected and untreated; exposed to the vapor of 3 mL of AITC in a Petri dish for 72 hours; and exposed to the vapor of 3 mL of DADS in a Petri dish for 72 hours. FIG. 17 quantifies the infection results. […] Both AITC and DADS vapor were effective at controlling Bc mold. Treatment with AITC can potentially lead to changes in color or flavor of the grapes.

Botrytis cinerea (Bc) [4] = assay: Antifungal activity of AITC vapor and coating agent against Botrytis cinerea (Bc) in strawberries; settings: Example 17; suspended strawberries; day 5

Compound	inhibition of fungal growth (Pi) ([1]; Example 2, 72 hours vapor of 3 mL)	reduction of the incidence of Cg mold compared to the untreated test group ([2]; Example 7, avocados) [%]	reduction of the incidence of Cg mold compared to the prochloraz treated test group ([2]; Example 7, avocados, vapor of 3 mL, prochloraz 0.1 g/L dip) [%]	reduction of the incidence of Cg mold ([2]; Example 9, avocados, vapor of 3 mL, 24 hour exposure) [%]	reduction of the incidence of Cg mold ([2]; Example 9, avocados, vapor of 3 mL, 48 hour exposure) [%]	reduction of the incidence of Cg mold ([2]; Example 9, avocados, vapor of 3 mL, 72 hour exposure) [%]	reduction of the incidence of Cg mold ([2]; Example 10, avocados, vapor of 3 mL, 24 hour exposure) [%]	reduction of the incidence of Cg mold ([2]; Example 10, avocados, vapor of 3 mL, 48 hour exposure) [%]	reduction of the incidence of Cg mold ([2]; Example 10, avocados, vapor of 3 mL, 72 hour exposure) [%]	incidence of Cg mold ([2]; Example 21, 125 μL, 30 minutes)	reduction of the incidence of Cg mold ([2]; Example 21, printed as 24 hour exposure) [%]	incidence of Cg mold ([2]; Example 22, AITC vapor 30 minutes)	Bc mold in grapes (Botrytis cinerea (Bc) [3])	reduction in incidence of mold versus untreated test group (Botrytis cinerea (Bc) [4])	reduction of the incidence of Pi mold compared to untreated/infected test group ([1]; Example 2, 72 hours vapor of 3 mL in a Petri dish) [%]	reduction of the incidence of Cg mold ([2]; Example 8, avocados, vapor of 3 mL, 24 hour exposure) [%]	reduction of the incidence of Cg mold ([2]; Example 8, avocados, vapor of 3 mL, 48 hour exposure) [%]	reduction of the incidence of Cg mold ([2]; Example 8, avocados, vapor of 3 mL, 72 hour exposure) [%]
C=CCN=C=S [AITC, allyl isothiocyanate]	approximately 100%	97	70	90	97	83	81.5	93.5	86.5	reduced the incidence of Cg mold compared to the untreated samples and the prochloraz treated sample	90	reduced the incidence of Cg mold compared to the untreated samples, the samples treated with coating agent, and the prochloraz treated sample	substantially eliminated Bc mold	over 80%				
C=CCSSCC=C [DADS, diallyl disulfide]		60											substantially eliminated Bc mold		30	8	25	57
